Usually IC50 stands for the concentration at which inhibition is half-maximal.

This passage reports IC50 results from US20260258035A1, “FIVE-MEMBERED AND SIX-MEMBERED NITROGEN-CONTAINING COMPOUND, AND INTERMEDIATE, PREPARATION METHOD AND USE THEREOF” (HANGZHOU SYNRX THERAPEUTICS BIOMEDICAL TECHNOLOGY CO., LTD., priority 2022, published 2026).

The target in one assay is PARG (Homo sapiens, UniProt Q86W56). The experiment in a line: Biochemical assay (PARG, TFMU-ADPr substrate).
A further assay deals with HCC1806. In words: Cell viability assay (CellTiter-Glo). Format: cell-based, Human. Particulars: HCC1806, 7 days, CellTiter-Glo, read-out: IC50 (nM) in cell viability assay.
Setting [1] is: 4 nM PARG, 66.2 uM TFMU-ADPr, 3 min at room temperature.

Read-outs that look alike come from different tables or passages of the source.

Sequence of PARG (Q86W56 whole entry): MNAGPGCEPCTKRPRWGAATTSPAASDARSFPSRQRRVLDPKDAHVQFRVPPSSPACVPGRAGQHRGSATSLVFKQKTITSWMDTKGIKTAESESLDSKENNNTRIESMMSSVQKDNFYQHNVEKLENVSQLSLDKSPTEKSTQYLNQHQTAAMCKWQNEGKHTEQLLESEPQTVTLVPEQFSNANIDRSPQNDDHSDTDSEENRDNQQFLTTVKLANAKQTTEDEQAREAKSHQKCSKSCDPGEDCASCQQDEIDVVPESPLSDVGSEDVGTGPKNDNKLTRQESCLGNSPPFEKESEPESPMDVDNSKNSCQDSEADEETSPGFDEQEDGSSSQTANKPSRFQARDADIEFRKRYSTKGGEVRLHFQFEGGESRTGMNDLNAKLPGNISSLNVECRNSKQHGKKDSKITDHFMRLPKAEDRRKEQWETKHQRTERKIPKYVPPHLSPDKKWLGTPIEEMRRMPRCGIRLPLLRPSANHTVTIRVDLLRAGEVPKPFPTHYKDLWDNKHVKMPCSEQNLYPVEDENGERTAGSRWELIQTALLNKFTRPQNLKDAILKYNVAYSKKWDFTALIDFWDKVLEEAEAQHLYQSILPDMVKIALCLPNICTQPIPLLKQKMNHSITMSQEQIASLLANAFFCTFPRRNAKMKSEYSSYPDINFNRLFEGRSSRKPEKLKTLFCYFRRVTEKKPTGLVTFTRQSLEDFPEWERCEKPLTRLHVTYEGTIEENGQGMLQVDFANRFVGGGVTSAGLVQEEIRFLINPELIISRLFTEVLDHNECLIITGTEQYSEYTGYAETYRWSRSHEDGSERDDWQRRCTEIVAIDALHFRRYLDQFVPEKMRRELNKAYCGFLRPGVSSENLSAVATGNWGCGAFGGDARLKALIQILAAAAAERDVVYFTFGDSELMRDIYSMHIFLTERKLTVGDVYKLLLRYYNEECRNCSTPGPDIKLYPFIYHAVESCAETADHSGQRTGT

In the case of `N#CC1(NS(=O)(=O)c2cc(N3CCC4=C(COC4=O)C3)c3cnc(-c4nnc(C(F)(F)F)s4)n3c2)CC1` [Example 220, N-(1-cyanocyclopropyl)-8-(1-oxo-1,4,6,7-tetrahydrofuro[3,4-c]pyridin-5(3H)-yl)-3-(5-(trifluoromethyl)-1,3,4-thiadiazol-2-yl)imidazo[1,5-a]pyridine-6-sulfonamide], the IC50 against PARG (PARG, TFMU-ADPr substrate) was 57.5 nM; in the assay on HCC1806 (Homo sapiens, HCC1806, 168 h), 664 nM.
For `N#CC1(NS(=O)(=O)c2cc(N3CCC4(CC3)COC4)c3cnc(-c4nnc(C(F)(F)F)s4)n3c2)CC1` [Example 209, N-(1-cyanocyclopropyl)-8-(2-oxa-7-azaspiro[3.5]nonan-7-yl)-3-(5-(trifluoromethyl)-1,3,4-thiadiazol-2-yl)imidazo[1,5-a]pyridine-6-sulfonamide], in that order: 60.3 nM and 765 nM.
`CC1(NS(=O)(=O)c2cc(N3CCN(C(=O)c4ccno4)CC3)c3cnc(-c4nnc(C(F)(F)F)s4)n3c2)CC1` [Example 329, 8-(4-(isoxazole-5-carbonyl)piperazin-1-yl)-N-(1-methylcyclopropyl)-3-(5-(trifluoromethyl)-1,3,4-thiadiazol-2-yl)imidazo[1,5-a]pyridine-6-sulfonamide]: the IC50 on PARG (PARG, TFMU-ADPr substrate) was 7.64 nM; in the assay with HCC1806 (Homo sapiens, HCC1806, 168 h) it was 187 nM.
On the same counts, the results for `CC1(NS(=O)(=O)c2cc(N3CCN4C(=O)NCC4C3)c3cnc(-c4nnc(C(F)(F)F)s4)n3c2)COC1` (centres unmarked) [Example 394, N-(3-methyloxetan-3-yl)-8-(3-oxohexahydroimidazo[1,5-a]pyrazin-7(1H)-yl)-3-(5-(trifluoromethyl)-1,3,4-thiadiazol-2-yl)imidazo[1,5-a]pyridine-6-sulfonamide] are 6.56 nM and 1700 nM.
On the same counts, the results for `CC1(NS(=O)(=O)c2cc(N3CCN(C(=O)C4(OCCO)CC4)CC3)c3cnc(-c4nnc(C(F)(F)F)s4)n3c2)CC1` [Example 383, 8-(4-(1-(2-hydroxyethoxy)cyclopropane-1-carbonyl)piperazin-1-yl)-N-(1-methylcyclopropyl)-3-(5-(trifluoromethyl)-1,3,4-thiadiazol-2-yl)imidazo[1,5-a]pyridine-6-sulfonamide] are 0.25 nM and 14.8 nM.
For the compound `CC1(NS(=O)(=O)c2cc(N3CCN(C(=O)C4(O)CC4)CC3)c3cnc(-c4nnc(C(F)(F)F)s4)n3c2)CC1` [Example 291, 8-(4-(1-hydroxycyclopropane-1-carbonyl)piperazin-1-yl)-N-(1-methylcyclopropyl)-3-(5-(trifluoromethyl)-1,3,4-thiadiazol-2-yl)imidazo[1,5-a]pyridine-6-sulfonamide], the IC50 on PARG (PARG, TFMU-ADPr substrate) turned out to be 9.55 nM; in the assay on HCC1806 (Homo sapiens, HCC1806, 168 h), 65 nM.
As for `CC(C)C(=O)N1CCN(c2cc(S(=O)(=O)NC3(C#N)CC3)cn3c(-c4nnc(C(F)F)s4)nnc23)CC1` [Example 105, N-(1-cyanocyclopropyl)-3-(5-(difluoromethyl)-1,3,4-thiadiazol-2-yl)-8-(4-isobutyrylpiperazin-1-yl)-[1,2,4]triazolo[4,3-a]pyridine-6-sulfonamide], the half-inhibitory concentration (IC50) on PARG (setting [1]) is under 100 nM; against PARG (PARG, TFMU-ADPr substrate), 78.6 nM; in the assay with HCC1806, 10000 nM; in the assay on HCC1806 (Homo sapiens, HCC1806, 168 h) it was 5000 to 30000 nM.
For the compound `Cc1cnc(-c2cnn3c(N4CCN(C(=O)C(C)C)CC4)cc(S(=O)(=O)NC4(C#N)CC4)cc23)s1` [Example 29, N-(1-cyanocyclopropyl)-7-(4-isobutyrylpiperazin-1-yl)-3-(5-methylthiazol-2-yl)pyrazolo[1,5-a]pyridine-5-sulfonamide], the IC50 against PARG (setting [1]) was under 100 nM; against PARG (PARG, TFMU-ADPr substrate), 94.6 nM; with HCC1806 (Homo sapiens, HCC1806, 168 h) it was 5000 to 30000 nM.
Turning to `CC(C)C(=O)N1CCN(c2cc(S(=O)(=O)NC3(C)CC3)cn3c(-c4nnc(C(F)F)s4)ncc23)C[C@H]1CO` [Example 331, (S)-3-(5-(difluoromethyl)-1,3,4-thiadiazol-2-yl)-8-(3-(hydroxymethyl)-4-isobutyrylpiperazin-1-yl)-N-(1-methylcyclopropyl)imidazo[1,5-a]pyridine-6-sulfonamide], the concentration for half-maximal inhibition (IC50) against PARG (PARG, TFMU-ADPr substrate) amounted to 0.44 nM; in the assay with HCC1806 (Homo sapiens, HCC1806, 168 h), 78.1 nM.
Take `CCC(=O)C1CCN(c2cc(S(=O)(=O)NC3(C#N)CC3)cn3c(-c4nnc(C(F)(F)F)s4)ncc23)CC1` [Example 258, N-(1-cyanocyclopropyl)-8-(4-propionylpiperidin-1-yl)-3-(5-(trifluoromethyl)-1,3,4-thiadiazol-2-yl)imidazo[1,5-a]pyridine-6-sulfonamide]: the IC50 worked out at 550 nM against PARG (PARG, TFMU-ADPr substrate) and 2830 nM in the assay with HCC1806 (Homo sapiens, HCC1806, 168 h).
For `CNC1(C(=O)N2CCN(c3cc(S(=O)(=O)NC4(C#N)CC4)cn4c(-c5nnc(C(F)(F)F)s5)ncc34)CC2)CC1` [Example 275, N-(1-cyanocyclopropyl)-8-(4-(1-(methylamino)cyclopropane-1-carbonyl)piperazin-1-yl)-3-(5-(trifluoromethyl)-1,3,4-thiadiazol-2-yl)imidazo[1,5-a]pyridine-6-sulfonamide], in that order: 22.9 nM and 472 nM.
For `CC(=O)N1CC=C(c2cc(S(=O)(=O)NC3(C#N)CC3)cn3c(-c4nnc(C(F)(F)F)s4)ncc23)CC1` [Example 370, 8-(1-acetyl-1,2,3,6-tetrahydropyridin-4-yl)-N-(1-cyanocyclopropyl)-3-(5-(trifluoromethyl)-1,3,4-thiadiazol-2-yl)imidazo[1,5-a]pyridine-6-sulfonamide], in that order: 41.7 nM and 240 nM.
On the same counts, the results for `CN(C)CCC(=O)N1CCN(c2cc(S(=O)(=O)NC3(C#N)CC3)cn3c(-c4nnc(C(F)(F)F)s4)ncc23)CC1` [Example 249, N-(1-cyanocyclopropyl)-8-(4-(3-(dimethylamino)propanoyl)piperazin-1-yl)-3-(5-(trifluoromethyl)-1,3,4-thiadiazol-2-yl)imidazo[1,5-a]pyridine-6-sulfonamide] are 115 nM and 7320 nM.
Turning to `N#CC1(NS(=O)(=O)c2cc(N3CCN(C(=O)C4COC4)CC3)c3cnc(-c4nnc(C(F)(F)F)s4)n3c2)CC1` [Example 226, N-(1-cyanocyclopropyl)-8-(4-(oxetane-3-carbonyl)piperazin-1-yl)-3-(5-(trifluoromethyl)-1,3,4-thiadiazol-2-yl)imidazo[1,5-a]pyridine-6-sulfonamide], the IC50 is 26.3 nM on PARG (PARG, TFMU-ADPr substrate) and 4850 nM in the assay with HCC1806 (Homo sapiens, HCC1806, 168 h).
With `N#CC1(NS(=O)(=O)c2cc(N3CCN(C(=O)[C@@H]4CCNC4)CC3)c3cnc(-c4nnc(C(F)(F)F)s4)n3c2)CC1` [Example 271, (R)-N-(1-cyanocyclopropyl)-8-(4-(pyrrolidine-3-carbonyl)piperazin-1-yl)-3-(5-(trifluoromethyl)-1,3,4-thiadiazol-2-yl)imidazo[1,5-a]pyridine-6-sulfonamide], the IC50 came to 11.5 nM on PARG (PARG, TFMU-ADPr substrate) and 36200 nM with HCC1806 (Homo sapiens, HCC1806, 168 h).
For `CC(C)S(=O)(=O)N1CCN(c2cc(S(=O)(=O)NC3CC3)cn3c(-c4nnc(C(F)(F)F)s4)ncc23)CC1` [Example 215, N-cyclopropyl-8-(4-(isopropylsulfonyl)piperazin-1-yl)-3-(5-(trifluoromethyl)-1,3,4-thiadiazol-2-yl)imidazo[1,5-a]pyridine-6-sulfonamide], in that order: 69.2 nM and 1500 nM.
